Assay results published in US12065512B2, “Cyclic peptide and a medicament, external preparation and cosmetic comprising said cyclic peptide” (Igisu Co., Ltd., priority 2015, dated 2024).
Positions of bridges follow the written chain, without caps; N, C: chain ends. No end group written: not given here.

Test system: skin, affected site
Test: Cyclic peptides with amino acid replacement: effects on skin (formulations A to E = 3, 15, 30, 100, 500 μg/ml in purified water)
Assay type: in vivo, human
Experimental: Next, cyclic peptides with some replaced amino acid were subjected to following examination in order to confirm their effect. The methods for preparing the above cyclic peptide and confirming amino acid sequence of the prepared peptide were same as the method for preparing the cyclic peptide as described above and Mass spectroscopy method.
9.2 Confirming Effects on Skin
The obtained cyclic peptide was prepared in purified water at 3, 15, 30, 100 or 500 μg/ml and applied to affected site. Each of formulations A to E in the table indicates the concentration of the cyclic peptide at 3, 15, 30, 100 or 500 μg/ml, respectively. The absence of the effect upon the application of purified water without the peptide confirmed the effect was not a placebo effect.

[1] = formulation C = 30 μg/ml cyclic peptide in purified water, applied to affected site, one line per subject (ID Q..), diagnosis and treatment as in the table line
[2] = eczema, formulation C (30 μg/ml in purified water), once a day
[3] = atopic dermatitis, formulation C (30 μg/ml in purified water), once a day
[4] = chronic eczema, formulation C (30 μg/ml in purified water), once a day
[5] = roughened skin, formulation C (30 μg/ml in purified water), once a day

## SEQ ID NO 16 (CFVRKMDRISSSSGLGC; disulfide 1-17)
[1]
  Diagnostic impression on skin after application: After 3 minutes, erythema was remitted.

## SEQ ID NO 18 (CFGHKMDRISSSSGLGC; disulfide 1-17)
[1]
  Diagnostic impression on skin after application: After 2 minutes, redness was remitted.

## SEQ ID NO 26 (CFGRKMDRISSVSGLGC; disulfide 1-17)
[1]
  Diagnostic impression on skin after application: After 2 minutes, remitted.

## SEQ ID NO 39 (CFSRKMDRISSSSGLGC; disulfide 1-17)
[1]
  Diagnostic impression on skin after application: After 3 minutes, nodes were flattened.

## SEQ ID NO 42 (CFGRKMDRISSASGLGC; disulfide 1-17)
acne, formulation C (30 μg/ml in purified water), once a day
  Diagnostic impression on skin after application: After 1 minute, redness was remitted.
Atopic dermatitis, formulation B (15 μg/ml in purified water), once a day
  Itches after application: Iches were eliminated
[2]
  Diagnostic impression on skin after application: After 3 minutes, erythema and dry skin

## SEQ ID NO 43 (CFGRKMDRISSSTGLGC; disulfide 1-17)
[3]
  Diagnostic impression on skin after application: After 2 minutes, no discomfort, felt
  Itches after application: After 3 minutes,
[2]
  Diagnostic impression on skin after application: After 1 minute, redness and infiltration
  Itches after application: Iches were eliminated
rosacae/acne, formulation C (30 μg/ml in purified water), once a day
  Diagnostic impression on skin after application: After 7 minutes, acne was reduce and
Roughened lips, formulation C (30 μg/ml in purified water), once a day
  Diagnostic impression on skin after application: 1 minute after application, dry skin
Roughened skin, formulation B (15 μg/ml in purified water), once a day
  Diagnostic impression on skin after application: After 3 minutes, redness and dry skin

## SEQ ID NO 44 (CFGRKMDRISSSAGLGC; disulfide 1-17)
[2]
  Diagnostic impression on skin after application: After 1 minute, erythema and infiltration
  Itches after application: Iches were remitted
Healthy skin, formulation B (15 μg/ml in purified water), once a day
  Diagnostic impression on skin after application: Skin got moisturized promptly, wrinkles

## SEQ ID NO 47 (CFSRKMDRISSSTGLGC; disulfide 1-17)
[4]
  Diagnostic impression on skin after application: Immediately after application, erythema

## SEQ ID NO 49 (CFSRKMDRISSSSGLAC; disulfide 1-17)
[4]
  Diagnostic impression on skin after application: Immediately after application, erythema

## SEQ ID NO 53 (CFGRRMDRISSSSGLAC; disulfide 1-17)
[2]
  Diagnostic impression on skin after application: After 1 minute, erythema and infiltration

## SEQ ID NO 58 (CFGRKMDRISSSSGIAC; disulfide 1-17)
[2]
  Diagnostic impression on skin after application: After 2 minutes, erythema, scales,

## SEQ ID NO 60 (CFSRRMDRISSSTGLGC; disulfide 1-17)
[4]
  Diagnostic impression on skin after application: Immediately after application, erythema

## SEQ ID NO 61 (CFSRRMDRISSSSGIGC; disulfide 1-17)
chronic, formulation C (30 μg/ml in purified water), once a day
  Diagnostic impression on skin after application: Immediately after application, erythema

## SEQ ID NO 63 (CFSRKMDRISSTSGIGC; disulfide 1-17)
eczema, formulation B (15 μg/ml in purified water), once a day
  Diagnostic impression on skin after application: After 3 minutes, erythema and scales

## SEQ ID NO 64 (CFSRKMDRISSSTGIGC; disulfide 1-17)
[4]
  Diagnostic impression on skin after application: Immediately after application, erythema

## SEQ ID NO 65 (CFSRKMDRISSSTGLAC; disulfide 1-17)
[5]
  Diagnostic impression on skin after application: After 1 minute, skin got moisturized and

## SEQ ID NO 68 (CFGRRMDRISSTSGLAC; disulfide 1-17)
[4]
  Diagnostic impression on skin after application: Immediately after application, erythema

## SEQ ID NO 69 (CFGRRMDRISSSTGIGC; disulfide 1-17)
[2]
  Diagnostic impression on skin after application: After 2 minutes, erythema, scales,

## SEQ ID NO 70 (CFGRRMDRISSSTGLAC; disulfide 1-17)
[4]
  Diagnostic impression on skin after application: immediately after application, erythema
[5]
  Diagnostic impression on skin after application: Redness vanished in 30 seconds. After 1

## SEQ ID NO 72 (CFSRRMDRISSTSGLAC; disulfide 1-17)
[4]
  Diagnostic impression on skin after application: Immediately after application, erythema,

## SEQ ID NO 73 (CFSRRMDRISSSTGIGC; disulfide 1-17)
[4]
  Diagnostic impression on skin after application: Immdediately after application, erythema

## SEQ ID NO 74 (CFSRRMDRISSSTGLAC; disulfide 1-17)
Chronic eczema, formulation D (100 μg/ml in purified water), once a day
  Diagnostic impression on skin after application: Iches were eliminated immediately after
[5]
  Diagnostic impression on skin after application: After 1 minute, rawness and hot flash
